Measurements published in patent US4416877A, “Anti-atherosclerotic pharmaceutical compositions containing diphosphonate compounds” (priority 1979, dated 1983).
Entries after “also recorded” stand apart in the source; their conditions may differ. Where two headings read alike, the source gives them in different places.

Assays:
[1] = test system: tissue cholesterol; test: Effects in cholesterol fed rats (serum, liver and aorta lipids); assay type: in vivo; conditions: for change in vivo at 200 mg/kg/day: Rattus norvegicus; for liver total lipids and/or liver cholesterol: cholesterol fed rats
Description: Effects of diphosphonates of formula (I) in cholesterol fed rats
In order to increase tissue cholesterol, especially liver, rats were fed a high fat-high cholesterol diet for 10 days to 3 months, with the following diet composition: casein 20%, butter 37%, cellulose 9.1%, dextrose 18,9%, cholesterol 4.5%, sodium cholate 1.8%, minerals 7.3%, vitamins 1%, choline 0.4%.
The rats were then fed normal food and were treated for 10 days to 3 months with different compounds (200 mg/kg/day). Serum parameters described above were measured. Liver and aorta lipids were extracted according to J. Folch et al (J. Biochem. 226, 497, 1957). Total lipids were determined by the sulfophosphovanillic reaction (see N. Zolner and K. Kirsch, Z. Ges. exp. Med. 135, 545, 1962) and cholesterol by the Liebermann-Burchard reaction or appropriate enzymatic reaction.
(§1) In above Table IV, results are given as % control values. Except for serum calcium, values which differ from control values by less than 15% are considered as non significant (NS).
Serum free fatty acids, triglycerides and phospholipids were measured in normal rats (N) and rats previously fed a cholesterol diet for 10 days (C.F.)
(§2) Serum α/β cholesterol, total lipids and cholesterol of liver and aorta were determined in normal rats (N) and rats which had previously been fed on high cholesterol diet (C.F.)

[2] = test system: lipid metabolism; test: Effects of diphosphonates on lipid metabolism in normal rats (serum lipids, α/β cholesterol); assay type: in vivo, male Wistar rats; conditions: for change in vivo at 200 mg/kg/day: Rattus norvegicus, po; for increased HDL lipids, especially HDL cholesterol: normal rats; for decreases in serum triglycerides / α-cholesterol/β-cholesterol ratio / lipoprotein cholesterol / increase in serum phospholipid: rats
Description: Effects of diphosphonates of formula (I) on lipid metabolism in normal rats Groups of 4 to 5 normal male Wistar rats, weighing about 200 g were treated with diphosphonates (200 mg/kg/day) p.o. for 4 to 21 days. Water soluble compounds were given in solution in 24 mM bicarbonate buffer. Lipid soluble compounds were given in corn oil. The rats were weighed, sacrificed by decapitation (under light ether anesthesia) after overnight fasting. Blood was collected and serum used for analysis. The following blood parameters reflecting changes in lipid metabolism are reported: […]
free fatty acids measured according to W. G. Duncombe (Clin. Acta 9, 122, 1964) triglycerides enzymatic method (Boehringer Mannheim Kit 126 012) phospholipids: molybdate/vanadate reaction (Boehringer Mannheim Kit 124 974) β-lipoprotein cholesterol was measured after heparin, CaCl2 precipitation according to M. Burstein et al. (La Presse Medicale 43, 974, 1958) and to D. Watson (Clin. Chim. Acta 5, 637, 1960).
as §1
as §2, with “Serum free fatty acids, triglycerides and phospholipids were measured in normal rats (N) and rats previously fed a cholesterol diet for 10 days (C.F.) Serum” for “Serum”

[3] = cholesterol fed rats (C.F), 200 mg/kg/day, read-out: Liver Chol. (% control values)
[4] = cholesterol fed rats (C.F), 200 mg/kg/day, read-out: Liver Total Lipids (% control values)
[5] = cholesterol fed rats (C.F), 200 mg/kg/day
[6] = normal rats (N), 200 mg/kg/day p.o., read-out: Serum Free Fatty Acids (% control values)
[7] = normal rats (N), 200 mg/kg/day p.o., read-out: Serum Phospholipids (% control values)
[8] = normal rats (N), 200 mg/kg/day p.o., read-out: Serum Triglycerides (% control values)
[9] = normal rats (N), 200 mg/kg/day p.o.
[10] = normal rats (N), 200 mg/kg/day p.o., read-out: Serum Chol. α/β (% control values)

| SMILES | change in vivo at 200 mg/kg/day [1, 3] | change in vivo at 200 mg/kg/day [1, 4] | liver total lipids and/or liver cholesterol [1] | Aorta Chol. (% control values) [1, 5] | Aorta Total Lipids (% control values) [1, 5] | Serum Chol. α/β (% control values) [1, 5] | Serum Free Fatty Acids (% control values) [1, 5] | Serum Phospholipids (% control values) [1, 5] | Serum Triglycerides (% control values) [1, 5] | change in vivo at 200 mg/kg/day [2, 6] | change in vivo at 200 mg/kg/day [2, 7] | change in vivo at 200 mg/kg/day [2, 8] | increased HDL lipids, especially HDL cholesterol [2] | decreases in serum triglycerides [2] | α-cholesterol/β-cholesterol ratio / lipoprotein cholesterol [2] | increase in serum phospholipid [2] | change in vivo at 200 mg/kg/day [2, 10] | further results |
| --- | --- | --- | --- | --- | --- | --- | --- | --- | --- | --- | --- | --- | --- | --- | --- | --- | --- | --- |
| COP(=O)(OC)C(O)(c1ccc(C(=O)c2ccc(Cl)cc2)cc1)P(=O)(OC)OC [Compound 9, Tetramethyl 1[4(4'-chlorobenzoyl)-phenyl]methane 1-hydroxy 1,1-diphosphonate] | < 15% | -25% | decreased significantly | -39% | NS (Except for serum calcium, values which differ from control values by less than 15% are considered as non significant (NS)) | +51% | -52% | +36% | -17% | -38% | < 15% | -16% | observed most dramatically | Significant decreases | highly significant activity | – | – | – |
| COP(=O)(OC)OC(c1ccccc1)P(=O)(OC)OC (stereo not drawn) [Compound 13, dimethyl α(dimethoxyphosphinyl) benzylphosphate] | – | – | decreased significantly | – | – | +25% | – | – | – | – | – | – | – | – | – | found to increase | – | Liver Chol. (% control values) [1, 5]: -51%; Liver Total Lipids (% control values) [1, 5]: -18%; Serum Free Fatty Acids (% control values) [2, 9]: -21%; Serum Phospholipids (% control values) [2, 9]: +21%; Serum Triglycerides (% control values) [2, 9]: +32% |
| COP(=O)(OC)OC(c1ccc(C)cc1)P(=O)(OC)OC (stereo not shown) [Compound 18] | – | < 15% | – | – | – | – | – | – | – | – | < 15% | -33% | – | – | – | – | < 15% | – |
| COP(=O)(OC)OC(C(C)(C)c1ccc(Cl)cc1)P(=O)(OC)OC (stereo not shown) [Compound 21, Dimethyl 1-(dimethoxyphosphinyl) 2,2-dimethyl 2(p-chlorophenyl) ethylphosphate] | -46% | -36% | decreased significantly | – | – | -32% | – | +24% | +28% | – | 16% | -38% | – | Significant decreases | – | found to increase | < 15% | – |
| CCOP(=O)(OCC)C(Cc1ccc(Cl)cc1)P(=O)(OCC)OCC [Compound 27] | < 15% | < 15% | decreased significantly | NS (Except for serum calcium, values which differ from control values by less than 15% are considered as non significant (NS)) | -60% | -35% | -65% | NS (Except for serum calcium, values which differ from control values by less than 15% are considered as non significant (NS)) | -24% | -44% | < 15% | -16% | – | Significant decreases | – | – | – | – |
| COP(=O)(OC)C(Cc1ccc(Cl)cc1)P(=O)(OC)OC [Compound 35] | -19% | < 15% | decreased significantly | – | – | – | – | – | – | -44% | 51% | < 15% | observed most dramatically | – | highly significant activity | found to increase; also recorded: at least two fold the most active | 75% | – |
